# Results reported in US7767713B2, “Linoleic acid active agents for enhancing probability of becoming pregnant” (Palo Alto Investors, priority 2004, dated 2010).
# Legend:
# [1] = tested on: female patients unable to achieve a successful pregnancy; assay: Open-label oral treatment of infertility clinic patients; format: in vivo, human; settings: oral form, 100 mg-5 g/day for three months, patients unable to achieve pregnancy for at least six months
# Method: Several patients from an active infertility clinic population are selected for open-label treatment with linoleic acid. All female patients have been unable to achieve a successful pregnancy for at least six months. Linoleic acid is formulated into a pharmaceutical oral form at a dosage of 100 mg-5 g/day for three months.
# [2] = tested on: uterine lining Th1/Th2 balance; assay: Animal model, immune function of the uterine lining; format: in vivo; settings: intravaginal injection, intrauterine injection or soaked vaginal sponge; versus sterile saline control animals
# Method: An animal model is used to determine the effects of linoleic acid on immune function of the uterine lining. Linoleic acid is delivered via several different methods—direct injection of the linoleic acid formulation into the vagina, direct injection of linoleic acid formulation into the uterus, linoleic acid soaked into a sponge and placed into the vagina. Control animals have sterile saline instilled in place of linoleic acid. The animals are then sacrificed, and the uterine lining is analyzed for changes in immunologic activity.
smiles,measurement,setting,value
"CCCCC/C=C\C/C=C\CCCCCCCC(=O)O [linoleic acid, Linoleic acid]",Successful pregnancies,[1],Successful pregnancies are seen in at least one patient
same,Changes in Th1/Th2 balance of uterine lining,[2],Changes in Th1/Th2 balance are seen
